From the NIST ThermoML archive (doi:10.1016/j.fluid.2007.01.038)
± gives the expanded uncertainty stated by the source.

What was measured:
[1] = Liquid; for mass density: 298.15 K, 101.33 kPa; for Normal boiling temperature: Ebulliometric method (Recirculating still)
[2] = refractive index (Na D-line) (dimensionless); settings: 298.15 K; 101.33 kPa; Liquid; Standard Abbe refractometry

mass density [1] [kg/m3] | Normal boiling temperature [1] [°C] | refractive index [2] | SMILES
757.57 ± 0.26 | 122.50 ± 0.1 | 1.3917 ± 0.00072 | CCCCOC(C)(C)C [butane, 1-(1,1-dimethylethoxy)-]
785.22 ± 0.5 | 78.29 ± 0.1 | 1.3592 ± 0.00073 | CCO [ethanol]
786.63 ± 0.5 | 64.4 ± 0.1 | 1.3264 ± 0.0007 | CO [methanol]
